Measured values: patent US20240042019A1, “OPTIMIZED TLR7 LIGANDS AND USES THEREOF” (Genentech, Inc., priority 2021, published 2024)
Entries after “also recorded” stand apart in the source; their conditions may differ. Oligonucleotides are written 5' to 3', each unit as a sugar letter and its base; * is a phosphorothioate linkage, no mark a phosphodiester; rarer units and linkages stand in square brackets, end groups in braces. Plain capitals give the bases only. m = 2'-O-methyl; r = 2'-OH (RNA); f = 2'-fluoro

Tests used:
[1] = Particle size of RNA-poly-L-arginine complexes by Dynamic Light Scattering; settings: 10 minute incubation (FIG. 9)
[2] = biological target: T1, TLR8 (Homo sapiens, UniProt Q9NR97); assay: PBMC stimulation with p-L-arginine-complexed RNA ligands, TNF-α ELISA; type: cell-based; settings: human PBMCs, p-L-arginine delivery, 16 hours, ELISA (FIG. 7)
T1 construct: Peripheral blood mononuclear cells (PBMCs) were obtained from buffy coats from healthy adult donors; endogenous in cells; host or cells: primary human PBMCs from healthy donor buffy coats (TLR8 in monocytes)
T1 sequence (Q9NR97 27-1041): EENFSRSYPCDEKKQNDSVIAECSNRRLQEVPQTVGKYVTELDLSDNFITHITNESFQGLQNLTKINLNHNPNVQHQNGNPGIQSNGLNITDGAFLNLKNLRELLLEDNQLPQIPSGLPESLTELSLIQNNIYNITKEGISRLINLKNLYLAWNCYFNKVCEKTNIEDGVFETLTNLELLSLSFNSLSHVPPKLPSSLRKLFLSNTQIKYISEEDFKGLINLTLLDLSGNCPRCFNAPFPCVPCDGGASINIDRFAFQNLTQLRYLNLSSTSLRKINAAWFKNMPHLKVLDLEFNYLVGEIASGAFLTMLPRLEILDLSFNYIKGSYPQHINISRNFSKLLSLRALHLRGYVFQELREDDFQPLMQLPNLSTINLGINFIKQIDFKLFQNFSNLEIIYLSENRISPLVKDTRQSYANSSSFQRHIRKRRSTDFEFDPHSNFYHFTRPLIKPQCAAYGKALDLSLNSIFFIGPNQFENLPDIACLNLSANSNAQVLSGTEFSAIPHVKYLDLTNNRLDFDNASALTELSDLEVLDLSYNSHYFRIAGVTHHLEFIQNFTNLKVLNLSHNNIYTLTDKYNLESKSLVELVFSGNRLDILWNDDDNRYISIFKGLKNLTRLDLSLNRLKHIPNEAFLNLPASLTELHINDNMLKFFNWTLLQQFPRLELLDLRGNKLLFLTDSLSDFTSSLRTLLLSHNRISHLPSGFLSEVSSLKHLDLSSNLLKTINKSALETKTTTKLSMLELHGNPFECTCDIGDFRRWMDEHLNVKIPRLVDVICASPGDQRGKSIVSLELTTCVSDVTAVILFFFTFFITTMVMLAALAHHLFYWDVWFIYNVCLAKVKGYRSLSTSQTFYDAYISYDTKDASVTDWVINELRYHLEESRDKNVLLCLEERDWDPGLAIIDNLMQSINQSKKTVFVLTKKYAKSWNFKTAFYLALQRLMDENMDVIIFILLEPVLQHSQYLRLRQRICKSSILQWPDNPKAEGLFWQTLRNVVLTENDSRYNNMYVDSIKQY
Protocol: (§1) Peripheral blood mononuclear cells (PBMCs) were obtained from buffy coats from healthy adult donors. Buffy coat samples were first diluted with an equal volume of phosphate-buffered saline (PBS). Next, PBMCs were isolated via density gradient centrifugation with Lymphoprep density gradient media ([…] Technologies) and SepMate-50 tubes ([…] Technologies). Samples were centrifuged at 1000 g for 15 minutes. After centrifugation, the upper layers were collected by pouring into a new tube, diluted with PBS, and centrifuged at 450×g for 5 minutes. To lyse red blood cells, cell pellets were resuspended with 10 mL Ammonium-Chloride-Potassium (ACK) Lysis Buffer and incubated for 8 minutes at room temperature. After lysis, cells were washed with PBS and passed through two 70 μm cell strainers. Viable cell counts were determined with a Vi-CELL cell counter (Beckman Coulter). […] Guanosine was added between about 20 and about 30 minutes before the addition of poly-[…])-complexed RNA. […] After mixing by pipetting up and down, the reaction was incubated for 10 minutes, pipetted up and down again, and then added to the cells. In some experiments, RNA ligands were used at a final concentration of 0.6 μg/ml. Where indicated as “+2'3' cGMP”, 2'3' cyclic GMP purchased from eMolecules was complexed together with the RNA ligands. The final concentration of 2'3' cyclic GMP was 5 μg/ml. p-L-arginine was adjusted accordingly to keep the mass ratio of nucleic acid:p-L-arginine constant. Cell culture supernatants were collected 15-18 hours after stimulation and stored at -80° C. Cytokines in cell culture supernatants were detected with the BD OptEIA human TNF ELISA Set (BD Biosciences), and either Invitrogen IFN alpha Human Matched Antibody Pair kit (Thermo Fisher Scientific) or Human IFN Alpha Multi-Subtype ELISA Kit (PBL Assay Science). To test the effects of the RNA ligands described in Example 1 on TLR7 and TLR8 activation, PBMCs were stimulated with the RNA ligands using p-L-arginine complex delivery, delivery with DOTAP, or delivery without a carrier. Activity of TLR7 and TLR8 was assessed based on measurements of IFN-α or TNF-α by enzyme-linked immunosorbent assays (ELISA). In this setting, as depicted in FIG. 6, IFN-α induced by small RNAs is derived from TLR7 expressed by pDCs, or from RIG-I expressed by monocytes. In contrast, TNF-α secretion is derived from monocytes and serves as an indication of TLR8 activation. As shown in this figure, the p-L-arginine delivery restricts most of the activation to TLRs. First, the effects of the RNA ligands on TLR7 and TLR8 activation using p-L-arginine complex delivery were tested.

[3] = biological target: T1, TLR8; assay: PBMC stimulation with DOTAP-complexed RNA ligands, TNF-α ELISA; type: cell-based; settings: human PBMCs, DOTAP delivery, 0.6 μg/ml and 2 μg/ml, 16 hours (FIGS. 10A-10B)
[4] = biological target: T2, TLR7 (Homo sapiens, UniProt Q9NYK1); assay: PBMC stimulation with p-L-arginine-complexed RNA ligands, IFN-α ELISA; type: cell-based; settings: human PBMCs; for TLR7 selectivity (IFN-α versus TNF-α secretion): p-L-arginine delivery (FIG. 7); for IFN-α secretion (TLR7 activity): p-L-arginine delivery, 16 hours, ELISA (FIG. 7)
T2 construct: Peripheral blood mononuclear cells (PBMCs) were obtained from buffy coats from healthy adult donors; endogenous in cells; host or cells: primary human PBMCs from healthy donor buffy coats (TLR7 expressed by pDCs)
T2 sequence (Q9NYK1 27-1049): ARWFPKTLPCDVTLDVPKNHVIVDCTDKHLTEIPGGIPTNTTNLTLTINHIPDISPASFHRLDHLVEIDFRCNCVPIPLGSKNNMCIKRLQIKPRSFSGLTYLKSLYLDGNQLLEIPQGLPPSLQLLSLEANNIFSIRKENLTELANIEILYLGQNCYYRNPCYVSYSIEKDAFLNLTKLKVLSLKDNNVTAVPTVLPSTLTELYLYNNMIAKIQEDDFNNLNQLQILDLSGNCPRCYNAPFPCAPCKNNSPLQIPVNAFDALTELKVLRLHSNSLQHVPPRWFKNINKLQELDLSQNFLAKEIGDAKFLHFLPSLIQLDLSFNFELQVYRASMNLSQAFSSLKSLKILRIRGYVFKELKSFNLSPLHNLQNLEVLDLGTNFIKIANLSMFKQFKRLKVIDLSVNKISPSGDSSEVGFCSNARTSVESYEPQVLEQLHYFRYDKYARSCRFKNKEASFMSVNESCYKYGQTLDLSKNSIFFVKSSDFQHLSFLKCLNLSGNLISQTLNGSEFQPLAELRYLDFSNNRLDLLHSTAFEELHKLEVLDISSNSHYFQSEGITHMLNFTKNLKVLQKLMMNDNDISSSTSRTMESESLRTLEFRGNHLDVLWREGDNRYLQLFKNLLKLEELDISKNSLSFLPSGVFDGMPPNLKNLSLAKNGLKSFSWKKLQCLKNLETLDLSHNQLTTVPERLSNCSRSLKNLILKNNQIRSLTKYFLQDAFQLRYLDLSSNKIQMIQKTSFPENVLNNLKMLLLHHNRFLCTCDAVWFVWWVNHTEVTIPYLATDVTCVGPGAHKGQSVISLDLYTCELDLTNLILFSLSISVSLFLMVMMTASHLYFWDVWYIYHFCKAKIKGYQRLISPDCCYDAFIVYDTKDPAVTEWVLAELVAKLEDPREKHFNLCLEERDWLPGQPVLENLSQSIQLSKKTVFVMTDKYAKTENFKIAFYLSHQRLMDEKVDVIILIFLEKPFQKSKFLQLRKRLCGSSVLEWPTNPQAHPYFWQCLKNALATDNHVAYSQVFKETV
Protocol: as §1

[5] = tested on: pDC-depleted PBMCs; assay: IFN-α secretion by pDC-depleted PBMCs versus PBMCs; type: cell-based, human; settings: Lipofectamine-mediated transfection, pDC-depleted PBMCs vs PBMCs (FIG. 8)
Protocol: Peripheral blood mononuclear cells (PBMCs) were obtained from buffy coats from healthy adult donors. Buffy coat samples were first diluted with an equal volume of phosphate-buffered saline (PBS). Next, PBMCs were isolated via density gradient centrifugation with Lymphoprep density gradient media ([…] Technologies) and SepMate-50 tubes ([…] Technologies). Samples were centrifuged at 1000 g for 15 minutes. After centrifugation, the upper layers were collected by pouring into a new tube, diluted with PBS, and centrifuged at 450×g for 5 minutes. To lyse red blood cells, cell pellets were resuspended with 10 mL Ammonium-Chloride-Potassium (ACK) Lysis Buffer and incubated for 8 minutes at room temperature. After lysis, cells were washed with PBS and passed through two 70 μm cell strainers. Viable cell counts were determined with a Vi-CELL cell counter (Beckman Coulter). […]
Cell culture supernatants were collected 15-18 hours after stimulation and stored at −80° C. Cytokines in cell culture supernatants were detected with the BD OptEIA human TNF ELISA Set (BD Biosciences), and either Invitrogen IFN alpha Human Matched Antibody Pair kit (Thermo Fisher Scientific) or Human IFN Alpha Multi-Subtype ELISA Kit (PBL Assay Science). […]

For “C*C*U*U*C*U*U*C*U*U*C*U*U*C*U*U*C*U*U*C (rC*rC*rU*rU*rC*rU*rU*rC*rU*rU*rC*rU*rU*rC*rU*rU*rC*rU*rU*rC) [ORN7012]”, the “Particle size (diameter) of RNA-poly-L-arginine complexes” value (from here on “Particle size (diameter)”) [1] was “behaved similarly”, the “TNF-α secretion (TLR8 activity)” value [2] was “TLR8-active” and the “TNF-α secretion (TLR8 activity)” value [3] was “further increased TLR8 activation”.

For “C*C*G*A*G*C*C*G*C*U*U*U*U*C*C*C (CCGAGCCGCUUUUCCC; all phosphorothioate, sugars by position not given here) [ORN7013, reference compound]”, the “Particle size (diameter)” value [1] was “behaved similarly”, the “TLR7 selectivity (IFN-α versus TNF-α secretion)” value (shortened to “TLR7 selectivity”) [4] was “limited TLR7 selectivity; also recorded: less TLR7-selective” and the “IFN-α secretion (TLR7 activity)” value [4] was “limited TLR7 selectivity and activity; also recorded: less TLR7-selective and active”.

For “GGGACGCUGACCCAGAAGAUCACUAGAAAUAGUAGAUCUUCUGGGUCAGCGUCCC (GGGACGCUGACCCAGAAGAUCACUAGAAAUAGUAGAUCUUCUGGGUCAGCGUCCC; RNA, phosphodiester; in vitro transcribed, further chemistry not given here) [IVT4, in vitro transcribed control, RIG-I ligand 3P-RNA]”, the “IFN-α secretion after pDC depletion” value [5] was “maintained after pDC depletion”.

In the case of “C-G-G-mC-U-C-G-G-C-A-G-A-A-G-C-C-G-G-G-C-C (rCrGrGmCrUrCrGrGrCrArGrArArGrCrCrGrGrGrCrC; hairpin) [ORN70230me, 2′O-methyl-C-modified ORN7023]”, the “Particle size (diameter)” value [1] is reported as “behaved similarly”, the “TLR7 selectivity” value [4] is reported as “maintained TLR7 selectivity; also recorded: TLR7-selective” and the “IFN-α secretion (TLR7 activity)” value [4] is reported as “further increasing the activity; also recorded: highly active”.

For “C*C*G*A*G*C*C*G*C*fU-U*fU-U*C*C*C (rC*rC*rG*rA*rG*rC*rC*rG*rC*fUrU*fUrU*rC*rC*rC) [ORN7015, 2′-fluoro modified version of ORN7013]”, the “Particle size (diameter)” value [1] was “behaved similarly”, the “TLR7 selectivity” value [4] was “moderately selective” and the “IFN-α secretion (TLR7 activity)” value [4] was “moderately selective and active”.

With “C*C*G*A*G*C*C*G*C*mU-U*fU-U*C*C*C (rC*rC*rG*rA*rG*rC*rC*rG*rC*mUrU*fUrU*rC*rC*rC) [ORN7016, 2′-fluoro- and 2′O-methyl-modified version of ORN7013]” the “Particle size (diameter)” value [1] was “behaved similarly”, the “TLR7 selectivity” value [4] was “TLR7-selective” and the “IFN-α secretion (TLR7 activity)” value [4] was “weakly active”.
